Data as given in patent publication US20210315869A1, “COMPOUNDS AND METHODS FOR CSK MODULATION AND INDICATIONS THEREFOR” (Plexxikon Inc., priority 2020, published 2021).

Experiments:
LCK = biological target: T1, LCK (Homo sapiens, UniProt P06239); test: Human LCK enzymatic assay (AlphaScreen, Poly (Glu4-Tyr) substrate); type: biochemical; details: 100 uM ATP; read-out: LCK IC50 (uM) COFACTOR: 100 uM ATP
T1 construct: purchased ProQinase
Procedure: This assay measures the ability of LCK to phosphorylate a biotinylated peptide containing multiple tyrosine residues in vitro. The LCK enzyme was purchased from ProQinase. The biotinylated Poly (Glu4-Tyr) peptide substrate was purchased from Sigma-Aldrich. The LCK enzyme assay was performed using 1 ng LCK enzyme and 30 nM Poly (Glu4-Tyr) substrate in the presence of 25 mM Hepes pH 7.5, 10 mM MnCl2, 50 mM NaCl, 0.01% Tween-20, 0.5 mM DTT, 0.01% BSA, and 100 μM ATP. A 19 μL volume of the above reaction mixture was added to wells of 384-well AlphaPlate (PerkinElmer GA, USA) containing 1 μL of various concentrations of test compound or DMSO vehicle and incubated for 40 minutes at 25° C. 16 wells containing all the components of reaction mixture and 5% DMSO served as high control. 16 wells containing all the components except ATP of reaction mixture and 5% DMSO served as low control. The enzymatic reaction was stopped by the addition of 5 μL stop/detection mixture containing 25 mM Hepes pH 7.5 100 mM EDTA, and 10 μg/mL streptavidin-coated AlphaScreen donor beads (PerkinElmer GA, USA) and incubated for 20 minutes. A 5 μL mixture containing 25 mM Hepes pH 7.5, 100 mM EDTA, and 10 μg/mL anti-phosphotyrosine antibody PY20-coated AlphaScreen acceptor beads (PerkinElmer GA, USA) was added and the plate was incubated for 1 hour at room temperature. The streptavidin donor beads bind to the biotin moiety on the biotinylated Poly (Glu4-Tyr) substrate and the PY20 antibody-coated acceptor beads bind to tyrosine residues on the substrate that have been directly phosphorylated by LCK. Upon excitation of these beads with laser light at 680 nm, singlet oxygen was produced. This singlet oxygen was rapidly quenched, unless the AlphaScreen PY20 acceptor beads are in close proximity, in which case a proximity signal can be measured at 580 nm. In the presence of catalytic activity, there was a very strong proximity signal. Selective LCK inhibitors affect a decrease in this proximity signal through a decrease in phosphorylation of the Poly (Glu4-Tyr) substrate. The percentage of inhibition at individual concentrations relative to high and low controls was calculated. The data were analyzed by using nonlinear regression to generate IC50 values.

CSK = biological target: T2, CSK (Homo sapiens, UniProt P41240); test: Human CSK enzymatic assay (AlphaScreen, Poly (Glu4-Tyr) substrate); type: biochemical; details: 100 uM ATP; read-out: CSK IC50 (μM) COFACTOR: 100 uM ATP
T2 construct: purchased Thermo Fisher
Procedure: This assay measures the ability of CSK to phosphorylate a biotinylated peptide containing multiple tyrosine residues in vitro. The CSK enzyme was purchased from Thermo Fisher. The biotinylated Poly (Glu4-Tyr) peptide substrate was purchased from Sigma-Aldrich. The CSK enzyme assay was performed using 0.75 ng CSK enzyme and 30 nM Poly (Glu4-Tyr) substrate in the presence of 25 mM Hepes pH 7.5, 5 mM Mg Acetate, 0.1% NP-40, 1 mM DTT, 0.01% BSA, and 100 μM ATP. A 19 μL volume of the above reaction mixture was added to wells of 384-well AlphaPlate (PerkinElmer GA, USA) containing 1 μL of various concentrations of test compound or DMSO vehicle and incubated for 60 minutes at room temperature. 16 wells containing all the components of reaction mixture and 5% DMSO serve as high control. 16 wells containing all the components except ATP of reaction mixture and 5% DMSO served as low control. The enzymatic reaction was stopped by the addition of 5 μL stop/detection mixture containing 25 mM Hepes pH 7.5 100 mM EDTA, and 5 μg/mL streptavidin-coated AlphaScreen donor beads (PerkinElmer GA, USA) and incubated for 20 minutes. A 5 μL mixture containing 25 mM Hepes pH 7.5, 100 mM EDTA, and 5 μg/mL anti-phosphotyrosine antibody PY20-coated AlphaScreen acceptor beads (PerkinElmer GA, USA) was added and the plate was incubated for 1 hour at room temperature. The streptavidin donor beads bind to the biotin moiety on the biotinylated Poly (Glu4-Tyr) substrate and the PY20 antibody-coated acceptor beads bind to tyrosine residues on the substrate that have been directly phosphorylated by CSK. Upon excitation of these beads with laser light at 680 nm, singlet oxygen was produced. This singlet oxygen was rapidly quenched, unless the AlphaScreen PY20 acceptor beads are in close proximity, in which case a proximity signal can be measured at 580 nm. In the presence of catalytic activity, there was a very strong proximity signal. Selective CSK inhibitors affect a decrease in this proximity signal through a decrease in phosphorylation of the Poly (Glu4-Tyr) substrate. The percentage of inhibition at individual concentrations relative to high and low controls was calculated. The data were analyzed by using nonlinear regression to generate IC50 values. Human LCK enzymatic assay

Jurkat/NFAT-RE cells = test: NFAT reporter assay (luciferase) in Jurkat/NFAT-RE cells; type: cell-based; details: Homo sapiens, 0.02 μg/mL anti-CD3 antibody OKT3, 3 hours, read-out: Jurkat EC50 (uM) Cell Assay: Reporter Cell Variant: NFAT response element
Excerpt: To assess the ability of CSK inhibitors to activate LCK and stimulate signaling downstream of the T-cell receptor, an NFAT reporter assay was used for monitoring of LCK activation in cells through the activation of LCK-dependent signaling through a reporter assay. The Jurkat T-cell cell line was genetically engineered to express a luciferase reporter that is regulated by the NFAT-response element. (Clipstone, N. A., & Crabtree, G. R., Identification of calcineurin as a key signalling enzyme in T-lymphocyte activation, Nature, 357(6380), 695-697, 1992). Stimulation of the T-cell receptor with anti-CD3 antibody increases the expression of the luciferase reporter. To test the ability of CSK inhibitors to stimulate LCK and downstream T-cell signaling, the cells were stimulated with a suboptimal concentration of anti-CD3 ligand, to measure the ability of CSK inhibitors to increase luciferase expression.
This assay measures the signaling activity downstream of the T-cell receptor, specifically the ability of the NFAT transcription factor to be translocated to the nucleus and induce expression of a firefly luciferase gene. Jurkat/NFAT-RE cells stably expressing the NFAT reporter construct were purchased from BPS Bioscience. The assay was performed by plating 40,000 Jurkat/NFAT-RE cells in a 50 μL volume of serum-free growth media in a 96-well plate. Following an overnight incubation, the cells were treated with CSK inhibitors and 0.02 μg/mL anti-CD3 antibody OKT3 (BD Bioscience) for 3 hours at 37° C. High control wells were stimulated with DMSO and 5 μg/mL OKT3 to maximally stimulate the NFAT reporter, and low control wells were stimulated with DMSO and 0.02 μg/mL OKT3. Following the 3 hour incubation, the cells were assayed for viability using CellTiter-Fluor™ (Promega), and for luciferase expression using ONE-Glo™ (Promega). The ONE-Glo™ signal was normalized to the CellTiter-Fluor™ signal, and the percentage of NFAT activation relative to high and low controls was calculated. The data were analyzed by using nonlinear regression to generate EC50 values. Selective CSK inhibitors affect an increase in luciferase expression in the presence of low level stimulation of the T-cell receptor.

T1 sequence (P06239 whole entry): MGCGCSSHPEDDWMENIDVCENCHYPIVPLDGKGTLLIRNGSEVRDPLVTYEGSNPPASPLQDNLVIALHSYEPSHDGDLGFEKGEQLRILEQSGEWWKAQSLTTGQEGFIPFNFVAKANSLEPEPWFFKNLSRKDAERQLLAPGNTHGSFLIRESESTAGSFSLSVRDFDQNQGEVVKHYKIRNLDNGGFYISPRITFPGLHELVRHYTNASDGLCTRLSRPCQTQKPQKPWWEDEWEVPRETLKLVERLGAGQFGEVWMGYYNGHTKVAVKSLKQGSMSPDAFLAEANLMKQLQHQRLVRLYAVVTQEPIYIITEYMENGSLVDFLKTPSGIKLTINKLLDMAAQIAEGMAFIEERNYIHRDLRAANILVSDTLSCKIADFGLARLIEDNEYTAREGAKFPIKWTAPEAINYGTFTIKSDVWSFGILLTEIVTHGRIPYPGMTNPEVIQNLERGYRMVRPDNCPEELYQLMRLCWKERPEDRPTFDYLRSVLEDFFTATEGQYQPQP

Structure (SMILES)	IC50 (LCK) [µM]	IC50 (CSK) [µM]	EC50 (Jurkat/NFAT-RE cells) [µM]
O=c1c(-c2c(F)ccc(NS(=O)(=O)c3cc4scnc4cc3F)c2F)cc2cnc(Nc3ccn(C(F)F)n3)cc2n1C1CC1 [P-0012, N-(3-(1-cyclopropyl-7-((1-(difluoromethyl)-1H-pyrazol-3-yl)amino)-2-oxo-1,2-dihydro-1,6-naphthyndin-3-yl)-2,4-difluorophenyl)-5-fluorobenzo[d]thiazole-6-sulfonamide]	0.5 to 5	0.001 to 0.5	0.001 to 0.5
O=c1c(-c2c(F)ccc(NS(=O)(=O)c3cc4scnc4cc3F)c2F)cc2cnc(Nc3ccn(C(F)F)n3)cc2n1C1CC(F)(F)C1 [P-0013, N-(3-(1-(3,3-difluorocyclobutyl)-7-((1-(difluoromethyl)-1H-pyrazol-3-yl)amino)-2-oxo-1,2-dihydro-1,6-naphthyridin-3-yl)-2,4-difluorophenyl)-5-fluorobenzo[d]thiazole-6-sulfonamide]	0.5 to 5	0.001 to 0.5	0.001 to 0.5
O=c1c(-c2c(F)ccc(NS(=O)(=O)c3cc4scnc4cc3F)c2F)cc2cnc(NCCO)cc2n1C1CC1 [P-0014, N-(3-(1-cyclopropyl-7-((2-hydroxyethyl)amino)-2-oxo-1,2-dihydro-1,6-naphthyridin-3-yl)-2,4-difluorophenyl)-5-fluorobenzo[d]thiazole-6-sulfonamide]	5 to 100	0.001 to 0.5	0.5 to 5
O=c1c(-c2c(F)ccc(NS(=O)(=O)c3cc4scnc4cc3F)c2F)cc2cnc(NCCO)cc2n1C1CC(F)(F)C1 [P-0015, N-(3-(1-(3,3-difluorocyclobutyl)-7-((2-hydroxyethyl)amino)-2-oxo-1,2-dihydro-1,6-naphthyridin-3-yl)-2,4-difluorophenyl)-5-fluorobenzo[d]thiazole-6-sulfonamide]	5 to 100	0.5 to 5	0.5 to 5
CC(F)(F)Cn1c(=O)c(-c2c(F)ccc(NS(=O)(=O)c3cc4scnc4cc3F)c2F)cc2cnc(N)cc21 [P-0016, N-(3-(7-amino-1-(2,2-difluoropropyl)-2-oxo-1,2-dihydro-1,6-naphthyridin-3-yl)-2,4-difluorophenyl)-5-fluorobenzo[d]thiazole-6-sulfonamide]	5 to 100	0.001 to 0.5	0.001 to 0.5
Nc1cc2c(cn1)cc(-c1c(F)ccc(NS(=O)(=O)c3cc4scnc4cc3F)c1F)c(=O)n2CC(F)(F)C1CC1 [P-0017, N-(3-(7-amino-1-(2-cyclopropyl-2,2-difluoroethyl)-2-oxo-1,2-dihydro-1,6-naphthyridin-3-yl)-2,4-difluorophenyl)-5-fluorobenzo[d]thiazole-6-sulfonnamide]	5 to 100	0.001 to 0.5	0.001 to 0.5
Nc1cc2c(cn1)cc(-c1c(F)ccc(NS(=O)(=O)c3cc4scnc4cc3F)c1F)c(=O)n2CC1CC(F)(F)C1 [P-0018, N-(3-(7-amino-1-((3,3-difluorocyclobutyl)methyl)-2-oxo-1,2-dihydro-1,6-naphthyridin-3-yl)-2,4-difluorophenyl)-5-fluorobenzo[d]thiazole-6-sulfonamide]	5 to 100	0.001 to 0.5	0.001 to 0.5

Results, then the molecule that gave them:

IC50 (LCK) [µM]	IC50 (CSK) [µM]	EC50 (Jurkat/NFAT-RE cells) [µM]	Structure (SMILES)
0.5 to 5	0.001 to 0.5	0.001 to 0.5	Nc1cc2c(cn1)cc(-c1c(F)ccc(NS(=O)(=O)c3ccc4ncsc4c3F)c1F)c(=O)n2CC(F)F [P-0019, N-(3-(7-amino-1-(2,2-difluoroethyl)-2-oxo-1,2-dihydro-1,6-naphthyridin-3-yl)-2,4-difluorophenyl)-7-fluorobenzo[d]thiazole-6-sulfonamide]
0.5 to 5	0.001 to 0.5	0.001 to 0.5	CC(F)(F)Cn1c(=O)c(-c2c(F)ccc(NS(=O)(=O)c3ccc4ncsc4c3F)c2F)cc2cnc(N)cc21 [P-0020, N-(3-(7-amino-1-(2,2-difluoropropyl)-2-oxo-1,2-dihydro-1,6-naphthyridin-3-yl)-2,4-difluorophenyl)-7-fluorobenzo[d]thiazole-6-sulfonamide]
0.5 to 5	0.001 to 0.5	0.001 to 0.5	Nc1cc2c(cn1)cc(-c1c(F)ccc(NS(=O)(=O)c3cc4scnc4cc3F)c1F)c(=O)n2CC(F)(F)F [P-0021, N-(3-(7-amino-2-oxo-1-(2,2,2-trifluoroethyl)-1,2-dihydro-1,6-naphthyridin-3-yl)-2,4-difluorophenyl)-5-fluorobenzo[d]thiazole-6-sulfonamide]
0.5 to 5	0.001 to 0.5	0.001 to 0.5	Nc1cc2c(cn1)cc(-c1c(F)ccc(NS(=O)(=O)c3ccc4ncsc4c3F)c1F)c(=O)n2CC(F)(F)F [P-0022, N-(3-(7-amino-2-oxo-1-(2,2,2-trifluoroethyl)-1,2-dihydro-1,6-naphthyridin-3-yl)-2,4-difluorophenyl)-7-fluorobenzo[d]thiazole-6-sulfonamide]
0.5 to 5	0.001 to 0.5	0.001 to 0.5	Nc1cc2c(cn1)cc(-c1c(F)ccc(NS(=O)(=O)c3ccc4ncsc4c3)c1F)c(=O)n2CC(F)F [P-0023, N-(3-(7-amino-1-(2,2-difluoroethyl)-2-oxo-1,2-dihydro-1,6-naphthyridin-3-yl)-2,4-difluorophenyl)benzo[d]thiazole-6-sulfonamide]
5 to 100	0.001 to 0.5	0.001 to 0.5	Nc1cc2c(cn1)cc(-c1c(F)ccc(NS(=O)(=O)c3cc4scnc4cc3F)c1F)c(=O)n2C1CCC1 [P-0024, N-(3-(7-amino-1-cyclobutyl-2-oxo-1,2-dihydro-1,6-naphthyridin-3-yl)-2,4-difluorophenyl)-5-fluorobenzo[d]thiazole-6-sulfonamide]
